Measurements: patent US7612096B2, “Methods for treatment, modification and management of radiculopathy using 1-oxo-2-(2,6-dioxopiperidin-3yl)-4-aminoisoindoline” (Celgene Corporation, priority 2004, dated 2009)

Tests used:
TNF-α production [1] = experiment: Inhibition of TNF-α production following LPS-stimulation of human whole blood; type: cell-based; details: LPS-stimulated, read-out: IC50 for inhibiting production of TNF-α following LPS-stimulation of human whole blood
From the text: (§1) Inhibitions of TNF-α production following LPS-stimulation of human PBMC and human whole blood by 3-(4-amino-1-oxo-1,3-dihydro-isoindol-2-yl)-piperidine-2,6-dione, 4-(amino)-2-(2,6-dioxo-(3-piperidyl))-isoindoline-1,3-dione and thalidomide were investigated in vitro.

IL6 production = experiment: LPS-stimulated production of IL6 by PBMC; type: cell-based
IL1β production = experiment: LPS-stimulated production of IL1β by PBMC; type: cell-based
Beagle dogs = experiment: Cardiovascular and respiratory function in anesthetized dogs; type: in vivo, dog; details: for cardiovascular and respiratory changes compared to the vehicle control group: anesthetized Beagle dogs, 2, 10 and 20 mg/kg, infusion through the jugular vein, all doses; for duration of the arterial blood pressure increase / change in arterial blood pressure / deviations in femoral blood flow, respiratory parameters, and Qtc interval: anesthetized Beagle dogs; for duration of the arterial blood pressure increase / change in arterial blood pressure: low dose; for change in arterial blood pressure: i.v. infusion, statistically significant, not seen at higher doses; for deviations in femoral blood flow, respiratory parameters, and Qtc interval: common to both control and treated groups
From the text: The effects of 3-(4-amino-1-oxo-1,3-dihydro-isoindol-2-yl)-piperidine-2,6-dione and 4-(amino)-2-(2,6-dioxo-(3-piperidyl))-isoindoline-1,3-dione on cardiovascular and respiratory function were investigated in anesthetized dogs. Two groups of Beagle dogs (2/sex/group) were used. One group received three doses of vehicle only and the other receives three ascending doses of 3-(4-amino-1-oxo-1,3-dihydro-isoindol-2-yl)-piperidine-2,6-dione or 4-(amino)-2-(2,6-dioxo-(3-piperidyl))-isoindoline-1,3-dione (2, 10, and 20 mg/kg). In all cases, doses of 3-(4-amino-1-oxo-1,3-dihydro-isoindol-2-yl)-piperidine-2,6-dione, 4-(amino)-2-(2,6-dioxo-(3-piperidyl))-isoindoline-1,3-dione or vehicle were successively administered via infusion through the jugular vein separated by intervals of at least 30 minutes.

TNF-α production [2] = experiment: Inhibition of TNF-α production following LPS-stimulation of human PBMC; type: cell-based; details: for IC50: human PBMC, LPS-stimulated, read-out: IC50 for inhibiting production of TNF-α following LPS-stimulation of PBMC
From the text: as §1

IL10 production = experiment: LPS-stimulated production of IL10 by PBMC; type: cell-based
CRPS patients = experiment: Clinical study in patients with upper extremity CRPS; type: in vivo, human; details: 10 mg continuous oral daily dose
Procedure: Immunomodulatory compounds such as 4-(amino)-2-(2,6-dioxo(3-piperidyl))-isoindoline-1,3-dione and 3-(4-amino-1-oxo-1,3-dihydro-isoindol-2-yl)-piperidine-2,6-dione are administered in an amount of 0.1 to 25 mg per day to patients with pain syndromes for three to six months. A baseline evaluation is performed for the effect of the drug treatment on pain intensity, impact of pain on activities of daily living, and consumption of other pain medications.
In a specific embodiment, clinical studies are performed in pain patients who have upper extremity CRPS that has not responded to conventional physical therapy and has been present for at least one year. In the early course of their diseases, patients have clear evidence of autonomic dysfunction with formal autonomic testing (Quantitative sudomotor axon reflex test (QSART), resting sweat output, and thermography). […] Responses are assessed using standard pain scales, e.g., Numeric Pain Scale Assessment (VAS) for pain, quality of life using the McGill Index and objective signs in clinical examination such as a visible reduction of swelling, sweating, discolorations in skin color, temperature changes, changes in skin, hair and nail growth, and fine motor movements. […]

IC50 (TNF-α production [1]) [nM] | IC50 (TNF-α production [2]) [nM] | Structure (SMILES) | effect on LPS-stimulated production of IL6 by PBMC (IL6 production) | effect on LPS-stimulated production of IL1β by PBMC (IL1β production) | cardiovascular and respiratory changes compared to the vehicle control group (Beagle dogs) | duration of the arterial blood pressure increase (Beagle dogs) | change in arterial blood pressure (Beagle dogs) | deviations in femoral blood flow, respiratory parameters, and Qtc interval (Beagle dogs) | effect on LPS-stimulated production of TNF-α by PBMC (TNF-α production [2]) | effect on production of the anti-inflammatory cytokine IL10 (IL10 production) | tolerability (CRPS patients)
~25 | ~24 | Nc1cccc2c1C(=O)N(C1CCC(=O)NC1=O)C2=O (stereo not drawn) [4-(Amino)-2-(2,6-dioxo(3-piperidyl))-isoindoline-1,3-dione] | dose-dependent inhibition | dose-dependent inhibition | minimal | approximately 15 minutes | small increase | not considered treatment-related | dose-dependent inhibition | increased production | 
~480 | ~100 | Nc1cccc2c1CN(C1CCC(=O)NC1=O)C2=O (stereo not drawn) [3-(4-amino-1-oxo-1,3-dihydro-isoindol-2-yl)-piperidine-2,6-dione] | dose-dependent inhibition | dose-dependent inhibition | minimal | approximately 15 minutes | small increase | not considered treatment-related | dose-dependent inhibition | increased production | well-tolerated
